From patent US8901105B2, “Prodrug derivatives of (E)-N-methyl-N-((3-M ethylbenzofuran-2-yl)methyl)-3-(7-oxo-5,6,7,8-tetrahydro-1,8-naphthyridin-3-yl)acrylamide” (Affinium Pharmaceuticals, Inc., priority 2012, dated 2014)
Values after ≈ are worked out from the molar mass of the structure shown. Counter-ions that a name gives are not always drawn. Like-named read-outs stand apart in the source and are kept apart here. Each block holds one compound with its values, some of them ahead of it.

Tests used:
Streptococcus pyogenes = assay: Broth microdilution MIC; assay type: cell-based
Experimental: (§1) Bacterial Isolates. Organisms tested in this study are listed in Table P. Clinical isolates consisted of 5 Staphylococcus aureus (MSSA), 3 Staphylococcus aureus (HA-MRSA), 2 Staphylococcus aureus (CA-MRSA), 2 Enterococcus faecalis (VSE), 2 Streptococcus pyogenes, and 2 Escherichia coli (susceptible to most antibiotics). S. aureus ATCC 29213, E. faecalis ATCC 29212, S. pneumoniae ATCC 49619, and E. coli ATCC 25922 were tested for the purposes of quality control.
(§2) Minimal Inhibitory Concentrations (MIC) values against the selected isolates were determined using the reference broth microdilution method according to the Clinical Laboratory Standards Institute (CLSI) guidelines.
(§3) The MIC was read and recorded as the lowest concentration of drug that inhibited visible growth of the organism.

Enterococcus faecalis = assay: Broth microdilution MIC; assay type: cell-based
Experimental: as §1, §2, §3

Staphylococcus aureus = assay: Broth microdilution MIC; assay type: cell-based; details: Staphylococcus aureus, read-out: MIC
Experimental: as §1, §2, §3

Escherichia coli = assay: Broth microdilution MIC; assay type: cell-based; details: Escherichia coli, read-out: MIC
Experimental: as §1, §2, §3

Streptococcus pneumoniae = assay: Broth microdilution MIC; assay type: cell-based; details: ATCC49619, S. pneumoniae ATCC 49619, read-out: MIC
Experimental: as §1, §2, §3

[1] = Solid-state stability (HPLC % area after storage); assay type: physicochemical; details: for Solid-state stability % Area: 4 weeks; for chemical stability: over 1 month at 30° C./65% RH, closed vials, light protected
Experimental: (§4) Various compounds disclosed herein have been placed on long-term solid-state stability protocol. The compounds were stored in glass vials closed with PTFE lined caps at 30° C./65% RH, 40° C./75% RH, 50° C. and 60° C. (ambient humidity). The results of the study after 4 weeks are shown in Table B1 and after 3 months in Table B2. Appearance and purity analysis were conducted using HPLC and XPRD. The HPLC analyses were conducted using standard equipment such as a Agilent HP1100 HPLC (Station ID: LZPES HPLC 04) with YMC-Pack ODS-AQ sub 3 μm, 150×4.6 mm

[2] = Aqueous solubility of salts at 25° C.; assay type: physicochemical; details: for solubility: thermodynamic from solid; for Comments (behaviour in solubility experiment): disodium salt
[3] = Photostability of solid salts; assay type: physicochemical
[4] = XRPD crystal form after storage; assay type: physicochemical; details: 4 weeks storage
Experimental: as §4, with “mm Samples were prepared for XRPD by sprinkling ˜20 mg onto a Si wafer zero background plate and pressing the material flat to ensure the surface is smooth and level. The samples were analyzed according the equipment parameters below.” for “mm”

[5] = water, 25° C., mg free acid equivalent/mL, read-out: Solubility in Water

MIC (Streptococcus pyogenes; S. pyogenes 6528): 0.5 µg/mL (≈ 1.51 µM) | MIC (Streptococcus pyogenes; Streptococcus pyogenes, S. pyogenes 6179, read-out: MIC): 0.5 µg/mL (≈ 1.51 µM) | MIC (Enterococcus faecalis; ATCC29212, E. faecalis ATCC 29212, read-out: MIC): 0.5 µg/mL (≈ 1.51 µM) | MIC (Enterococcus faecalis; E. faecalis 4158, VSE, read-out: MIC): 64 µg/mL (≈ 193 µM) | MIC (Enterococcus faecalis; E. faecalis 4212, VSE, read-out: MIC): 32 µg/mL (≈ 96.6 µM) | MIC (Staphylococcus aureus; ATCC29213, S. aureus ATCC 29213): 0.5 µg/mL (≈ 1.51 µM) | MIC (Staphylococcus aureus; MRSA, S. aureus 3083, HA-MRSA): 32 µg/mL (≈ 96.6 µM) | MIC (Staphylococcus aureus; MRSA, S. aureus 3086, HA-MRSA): > 64 µg/mL | MIC (Staphylococcus aureus; MRSA, S. aureus 3265, HA-MRSA): > 64 µg/mL | MIC (Staphylococcus aureus; MSSA, S. aureus 3104, MSSA): 0.25 µg/mL (≈ 0.754 µM) | MIC (Staphylococcus aureus; MSSA, S. aureus 3107, MSSA): 0.5 µg/mL (≈ 1.51 µM) | MIC (Staphylococcus aureus; MSSA, S. aureus 3245, MSSA): 0.5 µg/mL (≈ 1.51 µM) | MIC (Staphylococcus aureus; MSSA, S. aureus 3250, MSSA): 2 µg/mL (≈ 6.04 µM) | MIC (Staphylococcus aureus; MSSA, S. aureus 3856, MSSA): > 64 µg/mL | MIC (Staphylococcus aureus; S. aureus 2168, CAMRSA): 16 µg/mL (≈ 48.3 µM) | MIC (Staphylococcus aureus; S. aureus 2294, CAMRSA): > 64 µg/mL | MIC (Escherichia coli; ATCC25922, E. coli ATCC 25922): 0.008 µg/mL (≈ 0.0241 µM) | MIC (Escherichia coli; E. coli 2214): 0.015 µg/mL (≈ 0.0453 µM) | MIC (Escherichia coli; E. coli 5255): 0.008 µg/mL (≈ 0.0241 µM) | MIC (Streptococcus pneumoniae): 0.5 µg/mL (≈ 1.51 µM)
SMILES: O=C(O)c1cn(C2CC2)c2cc(N3CCNCC3)c(F)cc2c1=O [Ciprofloxacin]

Solid-state stability % Area ([1]; 30° C./65% RH): 96.3 % Area | Solid-state stability % Area ([1]; 40° C./75% RH): 84.4 % Area | Solid-state stability % Area ([1]; 50° C./ambient humidity): 86.8 % Area | Solid-state stability % Area ([1]; 60° C./ambient humidity): 85.9 % Area | Solid-state stability % Area ([1]; Control (ambient lab conditions protected from light)): 96.4 % Area | chemical stability [1]: chemically stable | solubility ([2]; aqueous buffer, pH 6.6, aqueous buffer, originally amorphous, crystallized within 7 days in aqueous buffer, pH 6.6-7.1, read-out: solubility after crystallization in aqueous buffer): < 5000 µg/mL | Comments (behaviour in solubility experiment) ([2]; water, 25° C.): Forms gels | Comments (behaviour in solubility experiment) ([2]; water, 25° C., listed as bis-sodium): formed unwieldy gels | Control % Area (Table C) ([3]; control sample at ambient lab conditions protected from light): 96.4 % Area | Photo-stability % Area ([3]; exposed to 60% of ICH minimum): 55.9 % Area | change in XRPD [4]: no change
SMILES: Cc1c(CN(C)C(=O)/C=C/c2cnc3c(c2)CCC(=O)N3COP(=O)([O-])[O-])oc2ccccc12.[Na+].[Na+] [Compound 9]

content after storage (degradation) ([1]; 4 weeks at 40/75): ~65% | chemical stability ([1]; 40° C./75% RH and 50° C.): not chemically stable | change in XRPD [4]: some changes
SMILES: Cc1c(CN(C)C(=O)/C=C/c2cnc3c(c2)CCC(=O)N3COP(=O)([O-])[O-])oc2ccccc12.[K+].[K+] [Compound 11]

SMILES: Cc1c(CN(C)C(=O)/C=C/c2cnc3c(c2)CCC(=O)N3COP2(=O)[O][Mg][O]2)oc2ccccc12 [Compound 12, (E)-6-[(N-methyl-((3-methylbenzofuran-2-yl)methyl)amino)-3-oxoprop-1-en-1-yl)-2-oxo-3,4-dihydro-1,8-naphthyridin-1 (2H)-yl]methylphosphate magnesium salt]
solubility [2, 5]: < 1000 µg/mL

SMILES: Cc1c(CN(C)C(=O)/C=C/c2cnc3c(c2)CCC(=O)N3COP2(=O)[O][Ca][O]2)oc2ccccc12 [Compound 13, (E)-6-[(N-methyl-((3-methylbenzofuran-2-yl)methyl)amino)-3-oxoprop-1-en-1-yl)-2-oxo-3,4-dihydro-1,8-naphthyridin-1(2H)-yl]methylphosphate calcium salt]
solubility [2, 5]: < 100 µg/mL
